This note sets out measurements from PubChem BioAssay (NCI).

Values joined by “and” are separate entries in the source; they are usually repeats but may differ in a detail not shown here. Identical values can stand only once.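 Dose response: 5 concentrations. Exposure: 48 h. Format: 96-well plates. Endpoint: linear interpolation; highest concentration if not reached. The concentration for 50% growth inhibition is given as GI50. TGI is the concentration that stops growth completely.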

Holding throughout (experiment): NCI anticancer screen, dose series, 48 h
In assay [1] the test system is A498 renal.
Assay [2] concerns CAKI-1 renal.
Assay [3] has as its system COLO 205 colon.
For assay [4], the system named is HCT-116 colon.
Assay [5] relates to LOX IMVI melanoma.
Assay [6] has as its system MCF7 breast.
Assay [7] relates to MDA-MB-231 breast.
Assay [8] deals with MOLT-4 leukemia.
For assay [9], the system named is NCI-H23 lung.
Assay [10] concerns SF-268 CNS.
Assay [11] deals with SF-295 CNS.
Assay [12] deals with SF-539 CNS.
The subject of assay [13] is SK-MEL-28 melanoma.
For assay [14], the system named is T-47D breast.
For assay [15], the system named is UO-31 renal.

As for `O=C(Cc1ccc(Cl)cc1)Nc1ccc2oc(-c3ccccc3)nc2c1`, the TGI in assay [1], in assay [2], in assay [3], in assay [4], in [5] and in [6] was over 100 µM each time. For the same compound, the TGI in [7], in assay [8], in assay [9], in [10], in [11] and in [12] was over 100 µM throughout. Moreover, the TGI in assay [13] and in [14] was over 100 µM in each case.

Turning to `Cc1c(Cl)c(S(N)(=O)=O)cc2c1NC=NS2(=O)=O`, the TGI in assay [1], in [2], in assay [3], in [4], in assay [5] and in [6] was over 100 µM throughout. Further, the TGI in [7], in assay [8], in [9], in assay [10], in assay [11] and in [13] was over 100 µM throughout. The TGI in assay [14] and in assay [15] was over 100 µM in each case.

With `CC(C)(C)NCC(O)c1ccc(O)c(CO)n1` (stereo unspecified), the TGI in [1], in assay [2], in assay [3], in assay [4], in assay [5] and in [6] was over 100 µM in each case. Further, the TGI in assay [7], in assay [8], in assay [9], in assay [10], in assay [11] and in assay [12] was over 100 µM throughout. Moreover, the TGI in assay [13], in assay [14] and in [15] was over 100 µM throughout.

`CC(=O)c1cccc(Nc2nc3ccc(Cl)cc3c3[nH]c4ccccc4c23)c1`: the GI50 in [1] is 2.15 µM; in assay [5], 5.46 µM; in assay [8], 6.41 µM; in assay [13], 16.5 µM. The TGI in assay [1] is 7.26 µM; in assay [2], over 36.7 µM; in assay [3], 12.8 µM; in [4], over 54.5 µM; in [5] it was over 100 µM; in assay [6], over 21.9 µM. Besides, the TGI was 63.8 µM in [7]; over 100 µM in assay [8]; over 73.8 µM in [9]; 36.9 µM in [10]; 11.1 µM in assay [11]; 30.1 µM in [12]. Moreover, the TGI was over 100 µM in [13], 50.6 µM in assay [14] and 41.9 µM in [15].

Regarding `Oc1ccc(Cc2nccc3cc(O)c(O)cc23)cc1O`, the TGI in assay [1] was over 100 µM; in assay [2] it was over 100 µM; in assay [3], 51.3 µM; in assay [4] it was 35.1 µM; in assay [5] it was over 100 µM; in assay [6], 49.6 µM. For the same compound, the TGI in assay [7], in [8], in [9], in assay [10], in assay [11] and in assay [12] was over 100 µM throughout. For the same compound, the TGI in [13], in [14] and in assay [15] was over 100 µM throughout.

For the compound `C/C(=N\NC(=S)N1CCN(C)CC1)c1nc2ncccc2[nH]1`, the TGI is over 100 µM in assay [1]; over 100 µM in [2]; over 100 µM in [3]; over 100 µM in assay [5]; 80.5 µM in assay [6]; over 100 µM in [7]. Further, the TGI in assay [8], in assay [9], in [10], in [11], in assay [12] and in assay [13] was over 100 µM in each case. Moreover, the TGI in assay [14] and in assay [15] was over 100 µM throughout.

Turning to `O=C(NNCc1ccco1)c1cc2ccccc2[nH]1`, the TGI is over 100 µM in assay [1]; over 100 µM in assay [2]; over 100 µM in assay [3]; over 100 µM in assay [4]; over 100 µM in [5]; over 46.3 µM in [6]. In addition, the TGI in assay [7] is over 100 µM; in assay [8], over 100 µM; in assay [9], over 100 µM; in assay [10], over 100 µM; in assay [11], over 100 µM; in [12], over 84.4 µM. Besides, the TGI in [13], in assay [14] and in assay [15] was over 100 µM throughout.

Take `CC(C)(C)C(=O)CP(=O)(O)O`: the TGI in assay [1], in assay [2], in assay [3], in [4], in assay [5] and in assay [6] was over 100 µM throughout. For the same compound, the TGI in assay [7], in assay [8], in [9], in [10], in assay [11] and in assay [12] was over 100 µM in each case. In addition, the TGI in [13] and in assay [14] was over 100 µM each time.

For the compound `Nc1ccc(S(=O)(=O)Nc2ccc(Nc3c4ccccc4nc4ccccc34)cc2)cc1`, the TGI came out at 1.14 µM in [1]; 0.517 µM in assay [2]; 14.9 µM in [3]; 15.6 µM in assay [4]; 1.51 µM in assay [5]; 16 µM in [6]. Also, the TGI in assay [7] is 22.1 µM; in assay [9], 0.732 µM; in assay [10], 13.8 µM; in assay [11], 1.03 µM; in assay [12], 0.362 µM; in [13] it was 20.8 µM. For the same compound, the TGI in [14] was 31.5 µM; in assay [15] it was 4.24 µM.

In the case of `COc1ccc(C2=NN(C(N)=S)C(c3ccccc3)C2)cc1` (stereo unspecified), the TGI in [1] was 70.8 µM; in assay [2] it was over 100 µM; in assay [3], 58.7 µM; in assay [4], over 100 µM; in assay [5], over 100 µM; in [6] it was 69.6 µM. For the same compound, the TGI was over 100 µM in assay [8]; over 100 µM in assay [9]; over 100 µM in assay [10]; 96.2 µM in assay [11]; over 100 µM in assay [12]; over 100 µM in assay [13]. Also, the TGI in assay [14] and in assay [15] was over 100 µM in each case.

For the compound `N=[N+]=CC(=O)CCC(NC(=O)C(CCC(=O)C=[N+]=N)NC(=O)CCC(N)C(=O)O)C(=O)O` (stereo unspecified), the TGI in assay [1], in [2], in assay [3], in [4], in [5] and in assay [6] was over 100 µM in each case. For the same compound, the TGI in assay [8], in assay [9], in assay [10], in [11], in [12] and in assay [13] was over 100 µM in each case. In addition, in [15], the TGI is over 100 µM.

Take `Cc1ccc(/C=C2\CN(C)CC3C2=NN(c2ccccc2)C3c2ccc(C)cc2)cc1` (stereo unspecified): the TGI in [1], in [2], in [3], in [4], in [5] and in assay [6] was over 100 µM throughout. The TGI in [7], in [8], in [9], in assay [10], in assay [11] and in assay [13] was over 100 µM in each case. For the same compound, the TGI in assay [14] and in assay [15] was over 100 µM each time.

In the case of `O=C(O)NCC1CCCCC1` (tested in a mixture with another compound), the TGI in [1] is 34.1 µM; in assay [2] it was over 100 µM; in [4], 88.7 µM; in assay [5], 28.6 µM; in [7], 44.9 µM; in [8] it was over 100 µM. For the same compound, the TGI was 81.2 µM in assay [9]; 38.4 µM in assay [10]; 50.3 µM in assay [11]; over 100 µM in [13]; over 100 µM in [15].

For `N#Cc1cc(-c2nc3c(F)cccc3s2)ccc1N`, the TGI in [1] was over 100 µM; in assay [2] it was over 100 µM; in assay [3], over 100 µM; in assay [4], over 100 µM; in [5], over 100 µM; in assay [6], 4.06 µM. The TGI in assay [7], in assay [8], in [9], in assay [10], in [11] and in assay [12] was over 100 µM each time. Besides, the TGI in assay [14] and in assay [15] was over 100 µM in each case.

As for `C[n+]1ccc(Nc2ccc(NC(=O)c3ccc(Nc4cc[n+](C)c5ccc([N+](=O)[O-])cc45)cc3[N+](=O)[O-])cc2)cc1`, the TGI in assay [1] was over 94.1 µM; in assay [2], over 100 µM; in assay [3], over 100 µM; in assay [4], over 100 µM; in assay [5] it was over 100 µM; in assay [6], over 58.3 µM. The TGI in assay [8] was over 100 µM; in assay [9], over 100 µM; in assay [10], over 100 µM; in assay [11], 63.6 µM and 60 µM; in assay [12], 68.5 µM and > 66.7 µM; in assay [13] it was 74.1 µM and 62.2 µM. Further, the TGI in assay [15] was 98.9 µM and > 79.4 µM. The GI50 in assay [6] was 1.25 µM and 3.34 µM.

Regarding `C1CSC(=[N+]2CC[N+](=C3SCCS3)CC2)S1`, the TGI in assay [1], in assay [2], in assay [3], in assay [4], in assay [5] and in assay [8] was over 100 µM in each case. For the same compound, the TGI in [9], in [10], in assay [11], in assay [12], in assay [13] and in assay [15] was over 100 µM in each case.

As to `Cc1cc2nc(N3C(=O)/C(=C/c4ccccc4S)N=C3c3ccccc3)sc2cc1C`, the TGI in assay [1] is 55.1 µM; in [2], over 100 µM; in assay [3], 98.5 µM; in [4], 61.3 µM; in assay [5], over 100 µM; in [6], over 100 µM. In addition, the TGI in assay [7] was 86 µM; in assay [8], over 100 µM; in assay [10], over 100 µM; in assay [11], over 100 µM; in assay [12], over 100 µM; in [13], over 100 µM. Besides, the TGI in assay [14] and in [15] was over 100 µM throughout.

Regarding `COC(=O)c1cc2cc3c(c(O)c2c(=O)o1)O[C@@]1(Oc2c(O)c4c(c(O)c2[C@H]1OC1CC(OC)C(O)C(C)O1)C(=O)C=C(OC)C4=O)[C@H](O)C3` (stereo partly specified), the TGI in assay [2] is 3.2 µM; in assay [3], 14.1 µM; in [4] it was over 20.8 µM; in [6] it was 10.1 µM; in assay [7], 5.95 µM; in assay [8] it was 6.22 µM. Also, the TGI is 3.85 µM in assay [9]; 5.19 µM in assay [10]; over 29.6 µM in assay [11]; 1.97 µM in assay [12]; 1.91 µM in assay [13]; 7.2 µM in assay [14]. In assay [15], this compound gave a TGI of over 30.4 µM.

As to `Nc1c(C(=O)Nc2ccc(C3=NCCN3)cc2)cccc1C(=O)Nc1ccc(C2=NCCN2)cc1`, the TGI in [1], in assay [2], in assay [3], in assay [4], in [5] and in assay [6] was over 100 µM in each case. Moreover, the TGI in assay [8], in [9], in [10], in [11], in [12] and in assay [13] was over 100 µM each time. Besides, in [15], the TGI was over 100 µM.
